Experimental data taken from paper PMC4474874, “Effect of JAK Inhibitors on Release of CXCL9, CXCL10 and CXCL11 from Human Airway Epithelial Cells” (PLoS ONE, 2015).
Read-outs that look alike come from different tables or passages of the source.

Legend:
[1] = test system: BEAS-2B cells; assay: Release of CXCL9, CXCL10 and CXCL11 from BEAS-2B cells (ELISA), inhibitors added 1h before stimulus; type: cell-based, human; details: for IC50: BEAS-2B, pre-treated 1h
Description: (§1) BEAS-2B cells (catalogue number CRL-9609) were purchased directly from American Type Culture Collection (Rockville, MD). Keratinocyte serum-free medium (K-SFM), bovine pituitary extract (BPE), and recombinant human epidermal growth factor (EGF) were purchased from Invitrogen (Paisley, UK). BEAS-2B cells were cultured in K-SFM containing 50 μg/ml BPE and 5 ng/ml EGF at 37°C in a humidified atmosphere comprising 5% (v/v) CO2 in air. Cells were cultured as monolayers in growth factor-free media for 24 h prior to stimulation. Human primary airway epithelial cells were cultured as monolayers from bronchial brushings from both male and female subjects (Table 1) and cultured in LHC-9 media (Invitrogen, Paisley, UK) in collagen (1% w/v) coated flasks. Samples were obtained from non-smokers, smokers and patients with COPD. […] The subjects were matched for age and smokers and COPD patients for smoking history (Table 1). All subjects gave informed written consent and the study was approved by the NRES London-Chelsea Research Ethics committee, study number 09/H0801/85.
(§2) Cell-free supernatants were removed 20h post-stimulation and assayed for CXCL9, CXCL10 and CXCL11 using Duoset ELISA kits (R & D Systems Europe, Abingdon, UK) according to the manufacturer’s instructions. The detection limits of these assays are 62pg/ml, 31pg/ml, and 7.8 pg/ml respectively.
(§3) Data are presented as mean ± SEM of ‘n’ independent determinations. Concentration-response curves were analysed by least-squares, non-linear iterative regression with the ‘Graphpad Prism’ curve fitting program (GraphPad software, San Diego, USA) and IC50 values were subsequently interpolated from curves of best-fit. Statistical differences were determined using the Kruskal–Wallis test followed by Dunn's multiple comparison test or a Wilcoxon signed rank test as appropriate. Values of P<0.05 were considered significant.
Media was harvested and the concentrations of CXCL9 (panels a and d), CXCL10 (panels b and e) and CXCL11 (panels c and f) were measured by ELISA. Data are presented as mean±SEM, n = 7–8.

[2] = test system: human primary airway epithelial cells; assay: Release of CXCL9, CXCL10 and CXCL11 from human primary airway epithelial cells (ELISA); type: cell-based; details: pre-treated 1h; for IC50: pooled primary cells
Description: as §1, §2, §3
Media was harvested and the concentrations of CXCL9 (panels a and d), CXCL10 (panels b and e) and CXCL11 (panels c and f) were measured by ELISA. Data are presented as mean ± SEM, n = 10–13.

[3] = test system: STAT-1; assay: STAT-1 phosphorylation in human primary airway epithelial cells (western blot); type: cell-based; details: 1μM inhibitor 1h, IFNγ and IFNγ + TNFα 10 min
Description: Enhanced chemiluminescence (ECL) reagent and Hybond-ECL nitrocellulose were obtained from GE Healthcare (Little Chalfont, UK). Bis-Tris SDS-PAGE (4–12%) gels and buffers were purchased from Invitrogen Ltd (Paisley, Scotland, UK). Antibodies against phosphorylated and total STAT-1 were purchased from New England Biolabs (Hitchin, UK). Epithelial cells were treated as indicated in six-well plates and lysed in 10 mM Tris-HCl buffer (pH 7.5) containing 150 mM NaCl, 2 mM EDTA, 1 mM sodium orthovanadate, 1% (v/v) Triton X-100, 1 mM phenylmethylsulfonyl fluoride, 10 μg/ml leupeptin, and 10 μg/ml aprotinin) for 30 min on ice. The lysates were then centrifuged at 12,000g for 15 min and protein concentration determined using the BCA protein assay (BioRad, Hemel Hempstead, UK). The proteins within the lysates (20 μg) were resolved with 4–12% Bis-Tris gels and transferred onto nitrocellulose membranes. The membranes were then blocked with 5% (w/v) non-fat milk in TBS containing 0.1% (v/v) Tween 20 for 1 h at room temperature and then incubated with antibodies specific for pSTAT-1 overnight at 4°C. The primary antibody was detected with peroxidase-conjugated secondary antibodies and labelled proteins were detected by ECL.
Cells were harvested and western blots performed for phosphorylated STAT-1 and total STAT-1 and quantified by densitometry. […]

[4] = test system: STAT-3; assay: STAT-3 DNA binding in BEAS-2B cells (TransAM); type: cell-based, human; details: IFNγ + TNFα, inhibitor 10^-6M
Description: STAT phosphorylation, nuclear translocation and DNA binding was determined using TransAM assays (Actif Motif, Rixensart, Belgium). Cells were treated with JAK inhibitors for 30 min prior to stimulation for 1h. Nuclear extracts were prepared using the Actif Motif assay reagents. Briefly, the nuclear extracts (10 μg) were incubated in DNA coated plates for 1h. After washing, antibodies supplied with the TransAM kit that were specific for the active forms of STAT1, STAT3, STAT5A and STAT5B were added to the wells and incubated for a further hour. The plates were washed and a secondary HRP-labelled anti-goat Ig antibody was added and the plates incubated for an hour. After washing, the assay was developed using the TMB substrate provided and the reaction stopped using 2N sulphuric acid. The plates were read at 450nm with a reference filter of 610nm. Data were then normalised to non-stimulated cells and calculated as fold change from baseline.
After 1 h, nuclear extracts of the cells were prepared and TransAM assays for STAT-1 (panel a) and STAT-3 (panel b) were performed. Data are presented as fold change from baseline ± SEM; n = 4.

[5] = test system: GSK3b; parameters: method as in PMID 18094329; details: inactive or IC50 >30μM; read-out: IC50 against GSK3b; cited from earlier work
[6] = test system: PDK1; parameters: method as in PMID 18094329; details: inactive or IC50 >30μM; read-out: IC50 against PDK1; cited from earlier work
[7] = IFNγ (10ng/ml) 20h, read-out: IC50, release of CXCL9
[8] = IFNγ (10ng/ml) 20h, read-out: IC50, release of CXCL10
[9] = IFNγ (10ng/ml) 20h, read-out: IC50, release of CXCL11
[10] = IFNγ+TNFα (10ng/ml) 20h, read-out: IC50, release of CXCL9
[11] = IFNγ+TNFα (10ng/ml) 20h, read-out: IC50, release of CXCL10

C[C@@H]1CCN(C(=O)N2CCCC2)C[C@@H]1N(C)c1ncnc2[nH]ccc12 [PF956980]
IC50 [1, 7]: 400 ± 100 nM
IC50 [1, 8]: 600 ± 300 nM
IC50 [1, 9]: 500 ± 100 nM
IC50 [1, 10]: 600 ± 100 nM
IC50 [1, 11]: 2200 ± 300 nM
effect on IFNγ-stimulated release of CXCL9, CXCL10 and CXCL11 ([1]; present study, IFNγ-stimulated): completely attenuated
IC50 [2, 7]: 680 ± 120 nM
IC50 [2, 8]: 960 ± 190 nM
IC50 [2, 9]: 760 ± 120 nM
IC50 [2, 10]: 520 ± 170 nM
IC50 [2, 11]: 2120 ± 240 nM
IC50 ([2]; IFNγ+TNFα (10ng/ml) 20h, read-out: IC50, release of CXCL11): 1580 ± 330 nM
EC50 ([2]; primary cells from COPD patients, IFNγ (10 ng/ml) 20h, read-out: EC50, release of CXCL9): 630 ± 90 nM
EC50 ([2]; primary cells from COPD patients, IFNγ (10 ng/ml) 20h, read-out: EC50, release of CXCL10): 530 ± 10 nM
EC50 ([2]; primary cells from COPD patients, IFNγ (10 ng/ml) 20h, read-out: EC50, release of CXCL11): 820 ± 250 nM
EC50 ([2]; primary cells from COPD patients, IFNγ +TNFα (10 ng/ml) 20h, read-out: EC50, release of CXCL9): 590 ± 380 nM
EC50 ([2]; primary cells from COPD patients, IFNγ +TNFα (10 ng/ml) 20h, read-out: EC50, release of CXCL10): 1840 ± 400 nM
EC50 ([2]; primary cells from COPD patients, IFNγ +TNFα (10 ng/ml) 20h, read-out: EC50, release of CXCL11): 1920 ± 670 nM
EC50 ([2]; primary cells from non-smokers, IFNγ (10 ng/ml) 20h, read-out: EC50, release of CXCL9): 880 ± 390 nM
EC50 ([2]; primary cells from non-smokers, IFNγ (10 ng/ml) 20h, read-out: EC50, release of CXCL10): 810 ± 150 nM
EC50 ([2]; primary cells from non-smokers, IFNγ (10 ng/ml) 20h, read-out: EC50, release of CXCL11): 660 ± 240 nM
EC50 ([2]; primary cells from non-smokers, IFNγ +TNFα (10 ng/ml) 20h, read-out: EC50, release of CXCL9): 610 ± 260 nM
EC50 ([2]; primary cells from non-smokers, IFNγ +TNFα (10 ng/ml) 20h, read-out: EC50, release of CXCL10): 2720 ± 360 nM
EC50 ([2]; primary cells from non-smokers, IFNγ +TNFα (10 ng/ml) 20h, read-out: EC50, release of CXCL11): 1850 ± 670 nM
EC50 ([2]; primary cells from smokers, IFNγ (10 ng/ml) 20h, read-out: EC50, release of CXCL9): 550 ± 90 nM
EC50 ([2]; primary cells from smokers, IFNγ (10 ng/ml) 20h, read-out: EC50, release of CXCL10): 1280 ± 360 nM
EC50 ([2]; primary cells from smokers, IFNγ (10 ng/ml) 20h, read-out: EC50, release of CXCL11): 780 ± 160 nM
EC50 ([2]; primary cells from smokers, IFNγ +TNFα (10 ng/ml) 20h, read-out: EC50, release of CXCL9): 350 ± 260 nM
EC50 ([2]; primary cells from smokers, IFNγ +TNFα (10 ng/ml) 20h, read-out: EC50, release of CXCL10): 1880 ± 410 nM
EC50 ([2]; primary cells from smokers, IFNγ +TNFα (10 ng/ml) 20h, read-out: EC50, release of CXCL11): 870 ± 130 nM
effect on phosphorylation of STAT-1 [3]: suppressed
effect on STAT-3 binding to DNA [4]: suppressed
IC50 [5]: > 30000 nM
IC50 [6]: > 30000 nM
